test system: H358 cells; test: H358 cell proliferation inhibition (CellTiter-Glo luminescent cell viability assay); type: cell-based; conditions: Homo sapiens, NCI-H358, 168 h, 7 days
Protocol: The effect of the compounds of the present invention on H358 cell proliferation was assessed by CellTiter-Glo luminescent cell viability assay kit method.
H358 cells (ATCC, CRL-5807) were cultured in RPMI1640 (Hyclone, SH30256.01) complete medium containing 10% FBS (Gibco, 10100147) and 100 U/mL penicillin-streptomycin mixed solution (Gibco, 15140163). When the cells grew to 80-90%, the cells were digested, pipetted, and seeded in a 96-well plate (Corning, 4515) at 3000 cells/well (180 µL RPMI1640 complete medium), and then the 96-well plate was incubated overnight in an incubator at 37 °C with 5% CO2.
After incubation overnight, 20 µL of a diluted test compound was added to each well using a multi-channel pipette, and the 96-well plate was placed in an incubator at 37 °C with 5% CO2 for further culture. After 7 days, 100 µL of the supernatant was pipetted and discarded. 50 µL of CellTiter-Glo® 3D Cell Viability Assay liquid was added to each well. The plate was shaken at room temperature at 450 rpm for 30 min. After the cells were completely lysed, "Luminescence" on the microplate reader was selected for plate reading. In this experiment, the cell-free group (replaced with 1640 medium) was used as the 100% inhibition group, and the compound-free group in which the cell was added was used as the 0% inhibition group.
The inhibition percentage of H358 cell proliferation by the compounds of the present invention could be calculated by the following formula: [formula]
(§1) IC50 values of the compounds were calculated from 8 concentration points using XLfit (ID Business Solutions Ltd., UK) software by the following formula: Y = Bottom + (Top−Bottom)/(1+10^(∧)((logIC50−X)×slopefactor)) [formula]
Y is the inhibition percentage, X is the logarithmic value of the concentration of the test compound, Bottom is the minimum inhibition percentage, Top is the maximum inhibition percentage, and slope factor is the slope coefficient of the curve.

Row | Compound | IC50
1 | COc1c(=O)n(C2(C)CCN(C(C)=O)C2)cc2c(N[C@H](C)c3cccc(C(F)F)c3F)nc(C)nc12 (stereo partly drawn) [Example 7, 6-(1-acetyl-3-methylpyrrolidin-3-yl)-4-(((R)-1-(3-(difluoromethyl)-2-fluorophenyl)ethyl)amino)-8-methoxy-2-methylpyrido[4,3-d]pyrimidine-7(6H)-one] | 0.0747 µM
2 | Cc1nc(N[C@H](C)c2cccc(C#N)c2C)c2cn(N3CCOCC3)c(=O)c(-c3ccc(C#N)nc3)c2n1 [Example 64, (R)-5-(4-((1-(3-cyano-2-methylphenyl)ethyl)amino)-2-methyl-6-morpholine-7-oxo-6,7-dihydropyrido[4,3-d]pyrimidin-8-yl)pyridinecarbonitrile] | 0.0407 µM

The remaining lines, values ahead:

Row | IC50 | Compound
3 | 0.0614 µM | COc1c(=O)n(C2(CF)CC2)cc2c(N[C@H](C)c3cccc(C#N)c3C)nc(C)nc12 [Example 3, (R)-3-(1-((6-(1-(fluoromethyl)cyclopropyl)-8-methoxy-2-methyl-7-oxo-6,7-dihydropyrido[4,3-d]pyrimidin-4-yl)amino)ethyl)-2-methylbenzonitrile]
4 | 0.154 µM | Cc1nc(N[C@H](C)c2cccc(C(F)F)c2F)c2cn(C3(CF)CC3)c(=O)c(OCC3CC3)c2n1 [Example 35, (R)-8-(cyclopropylmethoxy)-4-((1-(3-(difluoromethyl)-2-fluorophenyl)ethyl)amino)-6-(1-(fluoromethyl)cyclopropyl)-2-methylpyrido[4,3-d]pyrimidine-7(6H)-one]
5 | 0.162 µM | Cc1nc(N[C@H](C)c2cccc(C(F)F)c2F)c2cn(C3(CF)CC3)c(=O)c(N)c2n1 [Example 59, (R)-8-amino-4-((1-(3-(difluoromethyl)-2-fluorophenyl)ethyl)amino)-6-(1-(fluoromethyl)cyclopropyl)-2-methylpyrido[4,3-d]pyrimidine-7(6H)-one]
6 | 0.162 µM | Cc1nc(N[C@H](C)c2cccc(C(F)F)c2F)c2cn(C3(CF)CC3)c(=O)c(Oc3cnn(C)c3)c2n1 [Example 60, (R)-4-((1-(3-(difluoromethyl)-2-fluorophenyl)ethyl)amino)-6-(1-(fluoromethyl)cyclopropyl)-2-methyl-8-((1-methyl-1H-pyrazol-4-yl)oxy)pyrido[4,3-d)pyrimidine-7(6H)-one]
7 | 0.118 µM | Cc1nc(N[C@H](C)c2cccc(C#N)c2C)c2cn(C3(CF)CC3)c(=O)c(-c3ccc(C#N)nc3)c2n1 [Example 67, (R)-5-(4-((1-(3-cyano-2-methylphenyl)ethyl)amino)-6-(1-(fluoromethyl)cyclopropyl)-2-methyl-7-oxo-6,7-dihydropyrido[4,3-d]pyrimidin-8-yl)pyridinecarbonitrile]

test system: p-ERK pathway in H358 cells; test: p-ERK pathway inhibition in H358 cells (Advanced phospho-ERK (Thr202/Tyr204) cellular kit, HTRF); type: cell-based; conditions: Homo sapiens, NCI-H358, 1 h compound incubation
Protocol: The effect of the compounds of the present invention on H358 cell p-ERK pathway was assessed by Advanced phospho-ERK (Thr202/Tyr204) cellular kit method.
The experimental procedures were summarized as follows: H358 cells (ATCC, CRL-5807) were cultured in RPMI1640 (ThermoFisher, A1049101) complete medium containing 10% FBS (Gibco, 10100147) and 100 U/mL penicillin-streptomycin mixed solution (Gibco, 15140163). When the coverage of the cells in the culture vessel reached 80-90%, the cells were pipetted and seeded in a 96-well plate (Corning, 3599) at 50000 cells/well (90 µL RPMI1640 complete medium), and the plate was left to stand for 5 min, cultured in an incubator at 37 °C with 5% CO2 for 6 h, replaced with a serum-free RPMI1640, and starved overnight.
After incubation overnight, 10 µL of a diluted test compound was added to each well using a multi-channel pipette, and the 96-well plate was cultured in an incubator at 37 °C with 5% CO2 for 1 h. The supernatant was poured. The cells were washed once with PBS. 50 µL of a lysis buffer (Advanced phospho-ERK (Thr202/Tyr204) cellular kit, 64AERPEH) was added to each well. The plate was shaken at room temperature at 450 rpm for 1 h. After the cells were completely lysed, 16 µL of the supernatant was added to a 384-well plate (PE, 6007299), mixed energy donor Eu and energy acceptor D2 (D2/Eu = 1:1) were added, and the plate was incubated at room temperature for 4 h. HTRF on the microplate reader was selected for plate reading, Ratio = Signal 665 nm/Signal 620 nm × 10^4. In this experiment, the cell-free group (replaced with 1640 medium) was used as the 100% inhibition group, and the compound-free group in which the cell was added was used as the 0% inhibition group.
The inhibition percentage of H358 cell p-ERK pathway by the compounds of the present invention could be calculated by the following formula: [formula]
as §1
Y is the inhibition percentage, X is the logarithmic value of the concentration of the test compound, Bottom is the minimum inhibition percentage, Top is the maximum inhibition percentage, and slope factor is the slope coefficient of the curve. The default fitted curve was used to fit the slope of the S-shaped curve to determine the IC50 value. Table 2. Results of p-ERK inhibition test by the compounds of the present invention

Row | Compound | IC50
8 | COC1(c2c(=O)n(C3(CF)CC3)cc3c(N[C@H](C)c4cccc(C(F)F)c4F)nc(C)nc23)CCOC1 (stereo partly drawn) [Example 140, 4-(((R)-1-(3-(difluoromethyl)-2-fluorophenyl)ethyl)amino)-6-(1-(fluoromethyl)cyclopropyl)-8-(3-methoxytetrahydrofuran-3-yl)-2-methylpyrido[4,3-d]pyrimidine-7(6H)-one] | 0.131 µM
9 | Cc1nc(N[C@H](C)c2cccc(C#N)c2C)c2cn(N3CCOCC3)c(=O)c(-c3ccnc(N4CCOCC4)c3)c2n1 [Example 163] | 0.0439 µM
10 | Cc1nc(N[C@H](C)c2cccc(C(F)F)c2F)c2cn(C3(CF)CC3)c(=O)c(N3CCC(F)(F)CC3)c2n1 [Example 169] | 0.121 µM
11 | Cc1nc(N[C@H](C)c2cccc(C(F)F)c2F)c2cn(C3(CF)CC3)c(=O)c(-c3cnn4c3CCC4)c2n1 [Example 170] | 0.138 µM
12 | Cc1nc(N[C@H](C)c2cccc(C(F)F)c2F)c2cn(C3(CF)CC3)c(=O)c(N3CCOCC3=O)c2n1 [Example 172, (R)-4-(4-((1-(3-(difluoromethyl)-2-fluorophenyl)ethyl)amino)-6-(1-(fluoromethyl)cyclopropyl)-2-methyl-7-oxo-6,7-dihydropyrido[4,3-d]pyrimidin-8-yl)morpholine-3-one] | 0.167 µM
13 | Cc1nc(N[C@H](C)c2cccc(C(F)F)c2F)c2cn(C3(CF)CC3)c(=O)c(N3CCC(C)(C#N)CC3)c2n1 [Example 173] | 0.0983 µM
